Laboratory results taken from patent US9217014B2, “Antifungal agents and uses thereof” (Cidara Therapeutics, Inc., priority 2011, dated 2015).
Where two headings read alike, the source gives them in different places. Each block holds one compound with its values, some of them ahead of it.

Legend:
C. albicans R303 = test: mouse candidiasis infection model, IP administration, kidney fungal burden; type: in vivo; conditions: for overall performance in reducing C. albicans CFUs in the kidneys of the mice: conclusion over all runs
Outline: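 Female CD-1 mice rendered neutropenic with IP cyclophosphamide 150 mg/kg at days −4 and −1. Mice infected IV via tail vein with C. albicans R303, then given test compounds IP 2 h post-infection. Kidney fungal burden determined as CFU by plate counts; values are means of four mice.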

[1] = Pharmacokinetics in beagle dogs, intravenous; type: in vivo; conditions: for CI / half-life / Vd: 1.4 mg/kg intravenous slow bolus, mean ± SEM, n = 4 beagle dogs; for half-life / Vd: dog; for half-life: read-out: T ½ (converted); for Vd: read-out: Vz
Method: The test articles were administered to beagle dogs weighing approximately 6-10 kg. Each test article was dosed at 1.4 mg/kg in aqueous saline (with or without 0.5% Tween) over course of 1-10 minutes. […] The dogs were fasted at least 12 hours prior to each dosing and offered food after the 4-hour blood sample was taken; water was withheld for 1 hour prior to and 4 hours following each dosing event. The dose for each animal was based on its most recent body weight. The test article was injected intravenously via a catheter placed in the cephalic vein as a slow bolus.
Blood was collected via the jugular vein. All blood samples (˜1 mL each) were collected into K3EDTA tubes. Following blood collection, the samples were immediately inverted several times and were held on wet ice pending centrifugation. The samples were centrifuged within ˜30 minutes of collection under refrigeration (˜5° C. for ˜10 minutes at ˜2000 g) to obtain plasma. The plasma was frozen immediately on dry ice after separation. The plasma samples were stored at approximately −70° C. until analysis.
Plasma (100 μL) was precipitated with 400 μL of 0.1% formic acid in acetonitrile containing the internal standard (100 ng/mL pneumocandin). The samples were then capped and vortexed for about 30 seconds followed by centrifugation at 14,000 rpm at room temperature for 10 minutes. Following centrifugation 200 μL of supernatant was transferred to plastic autosampler vials containing 200 μL of 0.1% formic acid in water and vortexed. Samples were then analyzed by LCMSMS.
All pharmacokinetic calculations were performed using WinNonlin version 4.1 (Pharsight Corp) by noncompartmental analysis.

Candida spp. = test: MIC values versus Candida spp. at 24 and 48 hours; type: cell-based; conditions: presence and absence of 50% human serum
Method: (§1) MIC values (μg/mL) of anidulafungin, caspofungin, amphotericin B, compound 1, and compound 16 against various Candida species in the presence and absence of 50% human serum were obtained as follows.
(§2) Test organisms were obtained from the American Type Culture Collection (Manassas, Va.). The isolates were maintained at −80° C., then thawed and sub-cultured prior to testing.
(§3) The MIC assay method followed the procedure described by the Clinical and Laboratory Standards Institute and employed automated liquid handlers to conduct serial dilutions and liquid transfers. The wells in columns 1-12 in standard 96-well microdilution plates were filled with 150 μL of DMSO. These would become the ‘mother plates’ from which ‘daughter’ or test plates would be prepared. The drugs (150 μL at 80× the desired top concentration in the test plates) were dispensed into the appropriate well in column 1 of the mother plates and mixed. Serial 1:1 dilutions were made through Column 11 in the “mother plate”. The wells of column 12 contained no drug and were the organism growth control wells. […]
(§4) Plates were covered with a lid, placed in plastic bags, and incubated at 35° C. The Candida isolates were read after 24 h incubation and again at 48 h. […]
(§5) For Candida species, the Minimal Inhibitory Concentration (MIC) was read per CLSI guidelines.

Candida glabrata = test: MIC versus a strain of Candida glabrata in 50% human serum; type: cell-based
Method: as §1, §2, §3, §4, §5

[2] = Candida albicans, R303, ip, 24 h, Fifth run, IP 0.5 mg/kg, read-out: Difference from 24-h control
[3] = Candida albicans, R303, ip, 24 h, Fifth run, IP 1.5 mg/kg, read-out: Difference from 24-h control
[4] = Candida albicans, R303, ip, 24 h, Fifth run, IP 4.5 mg/kg, read-out: Difference from 24-h control
[5] = Fifth run, IP 0.5 mg/kg, kidneys 24 h after infection
[6] = Fifth run, IP 1.5 mg/kg, kidneys 24 h after infection
[7] = Fifth run, IP 4.5 mg/kg, kidneys 24 h after infection
[8] = beagle dogs, 1.4 mg/kg intravenous

SMILES: CCCCCOc1ccc(-c2ccc(-c3ccc(C(=O)N[C@H]4C[C@@H](O)C(OCC[N+](C)(C)C)NC(=O)C5[C@@H](O)[C@@H](C)CN5C(=O)C([C@@H](C)O)NC(=O)C([C@H](O)[C@@H](O)c5ccc(O)cc5)NC(=O)C5C[C@@H](O)CN5C(=O)C([C@@H](C)O)NC4=O)cc3)cc2)cc1 (stereo partly shown) [compound 1]
log reduction at 0.5 mg/kg (C. albicans R303; [2]): 1.47
log reduction at 1.5 mg/kg (C. albicans R303; [3]): 3.58
log reduction at 4.5 mg/kg (C. albicans R303; [4]): 4.81
log reduction at 5 mg/kg (C. albicans R303; Candida albicans, R303, ip, 24 h, First run, IP 5 mg/kg, read-out: Difference from 24-h control): 4.8
log reduction at 0.5 mg/kg (C. albicans R303; Candida albicans, R303, ip, 24 h, Second run, IP 0.5 mg/kg, read-out: Difference from 24-h control): 2.08
log reduction at 1.5 mg/kg (C. albicans R303; Candida albicans, R303, ip, 24 h, Second run, IP 1.5 mg/kg, read-out: Difference from 24-h control): 3.05
log reduction at 4.5 mg/kg (C. albicans R303; Candida albicans, R303, ip, 24 h, Second run, IP 4.5 mg/kg, read-out: Difference from 24-h control): 3.9
Mean log10 CFU/kidneys (±SEM) (C. albicans R303; [5]): 3.67 ± 0.07 log10 CFU/kidneys
Mean log10 CFU/kidneys (±SEM) (C. albicans R303; [6]): 1.56 ± 0.15 log10 CFU/kidneys
Mean log10 CFU/kidneys (±SEM) (C. albicans R303; [7]): 0.33 ± 0.33 log10 CFU/kidneys
Mean log10 CFU/kidneys (±SD) (C. albicans R303; First run, IP 5 mg/kg, neutropenic mice, kidneys 24 h after infection): 0.40 ± 0.80 log10 CFU/kidneys
Mean log10 CFU/kidneys (±SEM) (C. albicans R303; Second run, IP 0.5 mg/kg, kidneys 24 h after infection): 2.80 ± 0.11 log10 CFU/kidneys
Mean log10 CFU/kidneys (±SEM) (C. albicans R303; Second run, IP 1.5 mg/kg, kidneys 24 h after infection): 1.83 ± 0.14 log10 CFU/kidneys
Mean log10 CFU/kidneys (±SEM) (C. albicans R303; Second run, IP 4.5 mg/kg, kidneys 24 h after infection): 0.98 ± 0.33 log10 CFU/kidneys
overall performance in reducing C. albicans CFUs in the kidneys of the mice (C. albicans R303): performed strongly
CI [1]: 0.301 ± 0.0243 mL/min/kg
circulating half-life (in words) [1, 8]: surprisingly long circulating half-life
volume of distribution (in words) [1, 8]: surprisingly large volume of distribution
half-life ([1]; beagle, in vivo, iv, 1.4 mg/kg): 53.1 ± 3.93 h
Vd ([1]; in vivo): 1.36 ± 0.0619 L/kg
activity against Candida strains relative to anidulafungin (MIC) (Candida spp.): retain their activity
activity against a strain of Candida glabrata in comparison to anidulafungin (Candida glabrata): superior activity

CI [1]: 0.365 ± 0.014 mL/min/kg
half-life ([1]; plasma): 27.6 ± 1.11 h
Vd ([1]; plasma): 0.874 ± 0.0639 L/kg
activity against Candida strains relative to anidulafungin (MIC) (Candida spp.): retain their activity
SMILES: CCCCCOc1ccc(-c2ccc(-c3ccc(C(=O)N[C@H]4C[C@@H](O)C(NCC[N+](C)(C)C)NC(=O)C5[C@@H](O)[C@@H](C)CN5C(=O)C([C@@H](C)O)NC(=O)C([C@H](O)[C@@H](O)c5ccc(O)cc5)NC(=O)C5C[C@@H](O)CC5C(=O)C([C@@H](C)O)NC4=O)cc3)cc2)cc1 (stereo partly shown) [compound 16]
log reduction at 0.5 mg/kg (C. albicans R303; [2]): 3.22
log reduction at 1.5 mg/kg (C. albicans R303; [3]): 3.74
log reduction at 4.5 mg/kg (C. albicans R303; [4]): 4.08
Mean log10 CFU/kidneys (±SEM) (C. albicans R303; [5]): 1.91 ± 0.34 log10 CFU/kidneys
Mean log10 CFU/kidneys (±SEM) (C. albicans R303; [6]): 1.39 ± 0.16 log10 CFU/kidneys
Mean log10 CFU/kidneys (±SEM) (C. albicans R303; [7]): 1.05 ± 0.36 log10 CFU/kidneys
overall performance in reducing C. albicans CFUs in the kidneys of the mice (C. albicans R303): performed strongly
activity against a strain of Candida glabrata in comparison to anidulafungin (Candida glabrata): superior activity
